# Reference: patent US8314143B2, “Synthetic flavonoids and pharmaceutical compositions and therapeutic methods of treatment of HIV infection and other pathologies” (Florida A&M University, priority 2006, dated 2012)
# Several values for one entry are separate records, joined by “and”; a condition that tells them apart may be missing. Equal entries are not always repeated.
# Tests used:
# Type in all cases: cell-based
# H-9 cells = assay: Cytoxicity on H-9 cells (drug inhibition, cell count); conditions: for H-9 Mean (drug inhibition): Table 4 summary; for % Inhibition Mean / Cells (×10^4) Mean / % Inhibition / Cells (×10^4): Exp. Dec. 05 to Dec. 09, 2005; for % Inhibition / Cells (×10^4): single replicates
# Description: (§1) The purified and identified analogs were subjected to in vitro biological testing. […] These three congeners were further evaluated in H9 and PC3 cells. AZT was employed as a positive control in all of these experiments.
# MCF-7 cells = assay: Cytoxicity on MCF-7 cells (drug inhibition, cell count); parameters: Drug Inhibition on MCF-7 Cells / MCF-7 Mean (drug inhibition) / Drug inhibition on MCF-7 Cells Mean: unit not given here; conditions: MCF-7 cells; for MCF-7 Mean (drug inhibition): Table 13 summary part; for Drug inhibition on MCF-7 Cells Mean: Table 14 summary part
# Description: as §1
# PC-3 cells = assay: Cytoxicity on PC-3 cells (drug inhibition, cell count); conditions: for % Inhibition Mean / Cells (×10^4) Mean / % Inhibition / Cells (×10^4): Exp. Nov. 11 to Nov. 17, 2005; for % Inhibition / Cells (×10^4): single replicates
# Description: The purified and identified analogs were subjected to in vitro biological testing.
# [1] = 1 μg/ml, mean, Exp. Nov. 14 to Nov. 18, 2005
# [2] = 1 μg/ml, mean, Exp. Sep. 08 to Sep. 12, 2005
# [3] = 1 μg/ml, mean, Exp. Sep. 12 to Sep. 16, 2005
# [4] = 1 μg/ml, mean, Exp. Sep. 26 to Sep. 30, 2005
# [5] = 1 μg/ml, single replicates, Exp. Nov. 14 to Nov. 18, 2005
# [6] = 1 μg/ml, single replicates, Exp. Sep. 08 to Sep. 12, 2005
# [7] = 1 μg/ml, single replicates, Exp. Sep. 12 to Sep. 16, 2005
# [8] = 1 μg/ml, single replicates, Exp. Sep. 26 to Sep. 30, 2005
# [9] = 5 μg/ml, mean, Exp. Nov. 14 to Nov. 18, 2005
# [10] = 5 μg/ml, mean, Exp. Sep. 08 to Sep. 12, 2005
# [11] = 5 μg/ml, mean, Exp. Sep. 12 to Sep. 16, 2005
# [12] = 5 μg/ml, mean, Exp. Sep. 26 to Sep. 30, 2005
# [13] = 5 μg/ml, single replicates, Exp. Nov. 14 to Nov. 18, 2005
# [14] = 5 μg/ml, single replicates, Exp. Sep. 08 to Sep. 12, 2005
# [15] = 5 μg/ml, single replicates, Exp. Sep. 12 to Sep. 16, 2005
# [16] = 5 μg/ml, single replicates, Exp. Sep. 26 to Sep. 30, 2005
# [17] = 10 μg/ml, mean, Exp. Nov. 14 to Nov. 18, 2005
# [18] = 10 μg/ml, mean, Exp. Sep. 08 to Sep. 12, 2005
# [19] = 10 μg/ml, mean, Exp. Sep. 12 to Sep. 16, 2005
# [20] = 10 μg/ml, mean, Exp. Sep. 26 to Sep. 30, 2005
# [21] = 10 μg/ml, single replicates, Exp. Nov. 14 to Nov. 18, 2005
# [22] = 10 μg/ml, single replicates, Exp. Sep. 08 to Sep. 12, 2005
# [23] = 10 μg/ml, single replicates, Exp. Sep. 12 to Sep. 16, 2005
# [24] = 10 μg/ml, single replicates, Exp. Sep. 26 to Sep. 30, 2005
smiles,measurement,setting,value
"Cc1cn([C@H]2C[C@H](N=[N+]=[N-])[C@@H](CO)O2)c(=O)[nH]c1=O [AZT, reference compound]",H-9 Mean (drug inhibition),H-9 cells; 1 μg/ml,18.74
same,% Inhibition Mean,H-9 cells; 1 μg/ml,18.74%
same,Cells (×10^4) Mean,H-9 cells; 1 μg/ml,40.83 ×10^4
same,% Inhibition,H-9 cells; 1 μg/ml,17.91% and 25.37% and 12.94%
same,Cells (×10^4),H-9 cells; 1 μg/ml,41.3 ×10^4 and 37.5 ×10^4 and 43.8 ×10^4
same,H-9 Mean (drug inhibition),H-9 cells; 5 μg/ml,38.47
same,% Inhibition Mean,H-9 cells; 5 μg/ml,38.47%
same,Cells (×10^4) Mean,H-9 cells; 5 μg/ml,30.92 ×10^4
same,% Inhibition,H-9 cells; 5 μg/ml,39.30% and 40.30% and 35.82%
same,Cells (×10^4),H-9 cells; 5 μg/ml,30.5 ×10^4 and 30.0 ×10^4 and 32.3 ×10^4
same,H-9 Mean (drug inhibition),H-9 cells; 10 μg/ml,49.75
same,% Inhibition Mean,H-9 cells; 10 μg/ml,49.75%
same,Cells (×10^4) Mean,H-9 cells; 10 μg/ml,25.25 ×10^4
same,% Inhibition,H-9 cells; 10 μg/ml,48.26% and 50.25% and 50.75%
same,Cells (×10^4),H-9 cells; 10 μg/ml,26.0 ×10^4 and 25.0 ×10^4 and 24.8 ×10^4
same,Drug Inhibition on MCF-7 Cells,"MCF-7 cells; 1 μg/ml, Table 8 summary",6.92
same,Drug Inhibition on MCF-7 Cells,"MCF-7 cells; 1 μg/ml, Table 12 summary",26.55
same,MCF-7 Mean (drug inhibition),MCF-7 cells; 1 μg/ml,25.77
same,Drug inhibition on MCF-7 Cells Mean,MCF-7 cells; 1 μg/ml,21.53
same,% Inhibition Mean,MCF-7 cells; [1],6.92%
same,Cells (×10^4) Mean,MCF-7 cells; [1],53.83 ×10^4
same,% Inhibition Mean,MCF-7 cells; [2],25.77%
same,Cells (×10^4) Mean,MCF-7 cells; [2],52.33 ×10^4
same,% Inhibition Mean,MCF-7 cells; [3],21.53%
same,Cells (x10^4) Mean,MCF-7 cells; [3],45.25 x10^4
same,% Inhibition Mean,MCF-7 cells; [4],26.55%
same,Cells (×10^4) Mean,MCF-7 cells; [4],36.42 ×10^4
same,% Inhibition,MCF-7 cells; [5],8.36% and 4.47% and 7.93%
same,Cells (×10^4),MCF-7 cells; [5],53.0 ×10^4 and 55.3 ×10^4 and 53.3 ×10^4
same,% Inhibition,MCF-7 cells; [6],27.66% and 23.76% and 25.89%
same,Cells (×10^4),MCF-7 cells; [6],51.0 ×10^4 and 53.8 ×10^4 and 52.3 ×10^4
same,% Inhibition,MCF-7 cells; [7],22.83% and 20.23% and 21.53%
same,Cells (x10^4),MCF-7 cells; [7],44.5 x10^4 and 46.0 x10^4 and 45.3 x10^4
same,% Inhibition,MCF-7 cells; [8],28.40% and 25.88% and 25.38%
same,Cells (×10^4),MCF-7 cells; [8],35.5 ×10^4 and 36.8 ×10^4 and 37.0 ×10^4
same,Drug Inhibition on MCF-7 Cells,"MCF-7 cells; 5 μg/ml, Table 8 summary",38.62
same,Drug Inhibition on MCF-7 Cells,"MCF-7 cells; 5 μg/ml, Table 12 summary",46.86
same,MCF-7 Mean (drug inhibition),MCF-7 cells; 5 μg/ml,39.36
same,Drug inhibition on MCF-7 Cells Mean,MCF-7 cells; 5 μg/ml,50.43
same,% Inhibition Mean,MCF-7 cells; [9],38.62%
same,Cells (×10^4) Mean,MCF-7 cells; [9],35.50 ×10^4
same,% Inhibition Mean,MCF-7 cells; [10],39.36%
same,Cells (×10^4) Mean,MCF-7 cells; [10],42.75 ×10^4
same,% Inhibition Mean,MCF-7 cells; [11],50.43%
same,Cells (x10^4) Mean,MCF-7 cells; [11],28.58 x10^4
same,% Inhibition Mean,MCF-7 cells; [12],46.86%
same,Cells (×10^4) Mean,MCF-7 cells; [12],26.35 ×10^4
same,% Inhibition,MCF-7 cells; [13],39.91% and 40.35% and 35.59%
same,Cells (×10^4),MCF-7 cells; [13],34.8 ×10^4 and 34.5 ×10^4 and 37.3 ×10^4
same,% Inhibition,MCF-7 cells; [14],40.07% and 37.94%
same,Cells (×10^4),MCF-7 cells; [14],42.3 ×10^4 (2×) and 43.8 ×10^4
same,% Inhibition,MCF-7 cells; [15],47.98% and 51.88% and 51.45%
same,Cells (x10^4),MCF-7 cells; [15],30.0 x10^4 and 27.8 x10^4 and 28.0 x10^4
same,% Inhibition,MCF-7 cells; [16],49.98% and 45.04% and 45.55%
same,Cells (×10^4),MCF-7 cells; [16],24.8 ×10^4 and 27.3 ×10^4 and 27.0 ×10^4
same,Drug Inhibition on MCF-7 Cells,"MCF-7 cells; 10 μg/ml, Table 8 summary",61.1
same,Drug Inhibition on MCF-7 Cells,"MCF-7 cells; 10 μg/ml, Table 12 summary",65.21
same,MCF-7 Mean (drug inhibition),MCF-7 cells; 10 μg/ml,57.45
same,Drug inhibition on MCF-7 Cells Mean,MCF-7 cells; 10 μg/ml,65.03
same,% Inhibition Mean,MCF-7 cells; [17],61.10%
same,Cells (×10^4) Mean,MCF-7 cells; [17],22.50 ×10^4
same,% Inhibition Mean,MCF-7 cells; [18],57.45%
same,Cells (×10^4) Mean,MCF-7 cells; [18],30.00 ×10^4
same,% Inhibition Mean,MCF-7 cells; [19],65.03%
same,Cells (x10^4) Mean,MCF-7 cells; [19],20.17 x10^4
same,% Inhibition Mean,MCF-7 cells; [20],65.21%
same,Cells (×10^4) Mean,MCF-7 cells; [20],17.25 ×10^4
same,% Inhibition,MCF-7 cells; [21],61.53% and 60.23%
same,Cells (×10^4),MCF-7 cells; [21],22.3 ×10^4 (2×) and 23.0 ×10^4
same,% Inhibition,MCF-7 cells; [22],57.45%
same,Cells (×10^4),MCF-7 cells; [22],30.0 ×10^4
same,% Inhibition,MCF-7 cells; [23],69.65% and 62.72%
same,Cells (x10^4),MCF-7 cells; [23],17.5 x10^4 and 21.5 x10^4 (2×)
same,% Inhibition,MCF-7 cells; [24],65.21% and 63.19% and 67.23%
same,Cells (×10^4),MCF-7 cells; [24],17.3 ×10^4 and 18.3 ×10^4 and 16.3 ×10^4
same,Cells (×10^4) Mean,"MCF-7 cells; drug 1 μg/ml, mean of replicates",43.08 ×10^4
same,% Inhibition Mean,"MCF-7 cells; drug 1 μg/ml, mean of replicates, vs 2% DMSO",15.38%
same,Cells (×10^4),"MCF-7 cells; drug 1 μg/ml, single replicate count",43.3 ×10^4 (2×) and 42.8 ×10^4
same,% Inhibition,"MCF-7 cells; drug 1 μg/ml, single replicate, vs 2% DMSO",15.06% and 16.04%
same,Cells (×10^4) Mean,"MCF-7 cells; drug 5 μg/ml, mean of replicates",32.08 ×10^4
same,% Inhibition Mean,"MCF-7 cells; drug 5 μg/ml, mean of replicates, vs 2% DMSO",36.99%
same,Cells (×10^4),"MCF-7 cells; drug 5 μg/ml, single replicate count",31.5 ×10^4 and 32.3 ×10^4 and 32.5 ×10^4
same,% Inhibition,"MCF-7 cells; drug 5 μg/ml, single replicate, vs 2% DMSO",38.13% and 36.66% and 36.17%
same,Cells (×10^4) Mean,"MCF-7 cells; drug 10 μg/ml, mean of replicates",24.08 ×10^4
same,% Inhibition Mean,"MCF-7 cells; drug 10 μg/ml, mean of replicates, vs 2% DMSO",52.7%
same,Cells (×10^4),"MCF-7 cells; drug 10 μg/ml, single replicate count",22.0 ×10^4 and 25.5 ×10^4 and 24.8 ×10^4
same,% Inhibition,"MCF-7 cells; drug 10 μg/ml, single replicate, vs 2% DMSO",56.79% and 49.92% and 51.39%
same,Drug Inhibition on PC-3 cells,"PC-3 cells; 1 μg/ml, Table 7",17.27
same,Drug Inhibition on PC-3 cells,"PC-3 cells; 1 μg/ml, Table 10",13.69
same,% Inhibition Mean,PC-3 cells; 1 μg/ml,13.69%
same,Cells (×10^4) Mean,PC-3 cells; 1 μg/ml,84.58 ×10^4
same,% Inhibition,PC-3 cells; 1 μg/ml,14.29% and 12.76% and 14.03%
same,Cells (×10^4),PC-3 cells; 1 μg/ml,84.0 ×10^4 and 85.5 ×10^4 and 84.3 ×10^4
same,Drug Inhibition on PC-3 cells,"PC-3 cells; 5 μg/ml, Table 7",43.23
same,Cells (×10^4) Mean,PC-3 cells; 5 μg/ml,17.33 ×10^4
same,Cells (×10^4),PC-3 cells; 5 μg/ml,70.5 ×10^4 and 72.3 ×10^4 and 71.3 ×10^4
same,Drug Inhibition on PC-3 cells,"PC-3 cells; 10 μg/ml, Table 7",59.67
same,Drug Inhibition on PC-3 cells,"PC-3 cells; 10 μg/ml, Table 10",37.16
same,% Inhibition Mean,PC-3 cells; 10 μg/ml,37.16%
same,Cells (×10^4) Mean,PC-3 cells; 10 μg/ml,61.58 ×10^4
same,% Inhibition,PC-3 cells; 10 μg/ml,37.24% and 37.50% and 36.73%
same,Cells (×10^4),PC-3 cells; 10 μg/ml,61.5 ×10^4 and 61.3 ×10^4 and 62.0 ×10^4
